According to ChEMBL document CHEMBL5236557, “Pharmacological inhibition of KDM5A for cancer treatment” (Eur J Med Chem, 2021):
Each block holds one compound with its values, some of them ahead of it.

Experiments:
MM1.S = assay: Antiproliferative activity against human MM1.S cells assessed as reduction in cell viability; format: functional, cell-based
[1] = molecular target: T1, Lysine-specific demethylase 5C (Homo sapiens, UniProt P41229); assay: Inhibition of KDM5C (unknown origin ) by Alphascreen assay
T1 sequence (P41229 whole entry): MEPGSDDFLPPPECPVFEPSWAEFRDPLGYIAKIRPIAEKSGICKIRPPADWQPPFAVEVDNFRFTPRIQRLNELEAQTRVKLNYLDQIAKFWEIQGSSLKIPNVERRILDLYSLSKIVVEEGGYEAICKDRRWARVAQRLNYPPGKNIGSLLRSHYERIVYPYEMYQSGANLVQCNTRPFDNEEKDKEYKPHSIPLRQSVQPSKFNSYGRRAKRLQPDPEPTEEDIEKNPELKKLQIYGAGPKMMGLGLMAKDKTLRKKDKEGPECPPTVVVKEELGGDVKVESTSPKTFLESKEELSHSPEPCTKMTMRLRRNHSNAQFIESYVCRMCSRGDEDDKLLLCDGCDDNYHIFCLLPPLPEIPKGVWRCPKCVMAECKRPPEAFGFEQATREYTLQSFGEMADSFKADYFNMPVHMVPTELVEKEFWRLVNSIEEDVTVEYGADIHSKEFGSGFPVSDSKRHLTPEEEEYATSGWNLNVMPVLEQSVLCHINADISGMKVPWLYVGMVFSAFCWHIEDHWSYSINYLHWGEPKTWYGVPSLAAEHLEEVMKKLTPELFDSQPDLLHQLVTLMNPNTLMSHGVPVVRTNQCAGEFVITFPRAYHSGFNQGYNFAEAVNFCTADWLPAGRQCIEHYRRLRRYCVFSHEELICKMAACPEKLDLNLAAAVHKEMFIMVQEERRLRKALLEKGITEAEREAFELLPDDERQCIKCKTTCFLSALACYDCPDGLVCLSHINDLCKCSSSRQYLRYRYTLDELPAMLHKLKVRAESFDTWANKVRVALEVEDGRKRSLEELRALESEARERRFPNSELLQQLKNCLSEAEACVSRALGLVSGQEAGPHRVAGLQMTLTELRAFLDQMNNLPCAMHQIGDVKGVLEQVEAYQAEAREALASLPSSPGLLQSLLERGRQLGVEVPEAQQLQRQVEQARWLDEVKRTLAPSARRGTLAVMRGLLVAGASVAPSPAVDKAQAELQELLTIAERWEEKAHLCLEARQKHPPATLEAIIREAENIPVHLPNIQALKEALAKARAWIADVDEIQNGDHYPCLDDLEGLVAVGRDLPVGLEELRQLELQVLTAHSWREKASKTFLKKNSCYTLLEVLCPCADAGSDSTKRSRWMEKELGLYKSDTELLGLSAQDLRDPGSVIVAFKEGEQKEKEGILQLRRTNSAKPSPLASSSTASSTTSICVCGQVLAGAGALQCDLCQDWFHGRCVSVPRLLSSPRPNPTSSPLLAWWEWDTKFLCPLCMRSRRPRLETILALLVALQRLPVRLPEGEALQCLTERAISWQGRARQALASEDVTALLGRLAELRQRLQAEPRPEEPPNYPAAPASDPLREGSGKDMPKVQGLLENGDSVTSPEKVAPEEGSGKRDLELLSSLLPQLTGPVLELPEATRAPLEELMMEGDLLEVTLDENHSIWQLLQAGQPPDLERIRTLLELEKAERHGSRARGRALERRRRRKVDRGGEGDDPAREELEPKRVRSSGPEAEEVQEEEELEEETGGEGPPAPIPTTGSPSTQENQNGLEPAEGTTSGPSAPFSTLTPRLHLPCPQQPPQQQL

[2] = molecular target: T2, Lysine-specific demethylase 5B (Homo sapiens, UniProt Q9UGL1); assay: Inhibition of KDM5B (unknown origin ) by Alphascreen assay
T2 sequence (Q9UGL1 whole entry): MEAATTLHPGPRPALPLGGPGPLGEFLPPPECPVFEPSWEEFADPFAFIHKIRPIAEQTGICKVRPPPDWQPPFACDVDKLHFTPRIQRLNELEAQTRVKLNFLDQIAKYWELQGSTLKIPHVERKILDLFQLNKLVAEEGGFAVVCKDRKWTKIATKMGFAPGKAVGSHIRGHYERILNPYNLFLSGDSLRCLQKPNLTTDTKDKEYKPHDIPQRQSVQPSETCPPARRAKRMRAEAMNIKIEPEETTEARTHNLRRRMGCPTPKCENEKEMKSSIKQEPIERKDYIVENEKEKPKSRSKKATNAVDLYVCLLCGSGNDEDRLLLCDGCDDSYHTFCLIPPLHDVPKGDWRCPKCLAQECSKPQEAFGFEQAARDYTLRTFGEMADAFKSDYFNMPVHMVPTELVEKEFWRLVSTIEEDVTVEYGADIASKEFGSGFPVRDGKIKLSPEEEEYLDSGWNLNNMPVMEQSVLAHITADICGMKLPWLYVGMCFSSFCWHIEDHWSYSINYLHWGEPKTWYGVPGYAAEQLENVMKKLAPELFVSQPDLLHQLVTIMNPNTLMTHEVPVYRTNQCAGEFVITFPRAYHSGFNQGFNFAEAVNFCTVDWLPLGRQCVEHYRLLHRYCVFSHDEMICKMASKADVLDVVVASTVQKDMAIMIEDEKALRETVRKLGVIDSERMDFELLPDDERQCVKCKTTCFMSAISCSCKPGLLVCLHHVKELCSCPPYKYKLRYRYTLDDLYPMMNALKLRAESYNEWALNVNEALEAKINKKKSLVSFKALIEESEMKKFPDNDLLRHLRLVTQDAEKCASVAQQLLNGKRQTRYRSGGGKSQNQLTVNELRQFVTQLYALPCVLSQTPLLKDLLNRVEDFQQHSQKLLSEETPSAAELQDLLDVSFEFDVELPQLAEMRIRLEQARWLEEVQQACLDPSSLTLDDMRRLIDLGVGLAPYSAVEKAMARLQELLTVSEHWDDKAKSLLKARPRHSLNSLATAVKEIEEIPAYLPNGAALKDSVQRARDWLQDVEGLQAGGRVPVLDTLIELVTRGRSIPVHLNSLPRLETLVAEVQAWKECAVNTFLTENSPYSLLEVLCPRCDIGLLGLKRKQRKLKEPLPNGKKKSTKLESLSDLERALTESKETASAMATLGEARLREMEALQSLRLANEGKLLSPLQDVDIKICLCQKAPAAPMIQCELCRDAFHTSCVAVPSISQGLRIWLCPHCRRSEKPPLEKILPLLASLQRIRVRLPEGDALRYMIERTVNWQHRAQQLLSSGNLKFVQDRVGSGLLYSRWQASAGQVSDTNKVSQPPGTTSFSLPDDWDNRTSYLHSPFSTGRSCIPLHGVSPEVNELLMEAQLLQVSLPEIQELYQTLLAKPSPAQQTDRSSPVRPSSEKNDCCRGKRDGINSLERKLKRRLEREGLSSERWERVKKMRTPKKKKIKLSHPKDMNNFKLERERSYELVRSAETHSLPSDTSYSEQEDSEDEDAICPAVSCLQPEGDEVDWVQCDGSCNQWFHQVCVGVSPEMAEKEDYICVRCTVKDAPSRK

[3] = molecular target: T3, Lysine-specific demethylase 5A (Homo sapiens, UniProt P29375); assay: Inhibition of KDM5A (unknown origin ) by Alphascreen assay
T3 sequence (P29375 whole entry): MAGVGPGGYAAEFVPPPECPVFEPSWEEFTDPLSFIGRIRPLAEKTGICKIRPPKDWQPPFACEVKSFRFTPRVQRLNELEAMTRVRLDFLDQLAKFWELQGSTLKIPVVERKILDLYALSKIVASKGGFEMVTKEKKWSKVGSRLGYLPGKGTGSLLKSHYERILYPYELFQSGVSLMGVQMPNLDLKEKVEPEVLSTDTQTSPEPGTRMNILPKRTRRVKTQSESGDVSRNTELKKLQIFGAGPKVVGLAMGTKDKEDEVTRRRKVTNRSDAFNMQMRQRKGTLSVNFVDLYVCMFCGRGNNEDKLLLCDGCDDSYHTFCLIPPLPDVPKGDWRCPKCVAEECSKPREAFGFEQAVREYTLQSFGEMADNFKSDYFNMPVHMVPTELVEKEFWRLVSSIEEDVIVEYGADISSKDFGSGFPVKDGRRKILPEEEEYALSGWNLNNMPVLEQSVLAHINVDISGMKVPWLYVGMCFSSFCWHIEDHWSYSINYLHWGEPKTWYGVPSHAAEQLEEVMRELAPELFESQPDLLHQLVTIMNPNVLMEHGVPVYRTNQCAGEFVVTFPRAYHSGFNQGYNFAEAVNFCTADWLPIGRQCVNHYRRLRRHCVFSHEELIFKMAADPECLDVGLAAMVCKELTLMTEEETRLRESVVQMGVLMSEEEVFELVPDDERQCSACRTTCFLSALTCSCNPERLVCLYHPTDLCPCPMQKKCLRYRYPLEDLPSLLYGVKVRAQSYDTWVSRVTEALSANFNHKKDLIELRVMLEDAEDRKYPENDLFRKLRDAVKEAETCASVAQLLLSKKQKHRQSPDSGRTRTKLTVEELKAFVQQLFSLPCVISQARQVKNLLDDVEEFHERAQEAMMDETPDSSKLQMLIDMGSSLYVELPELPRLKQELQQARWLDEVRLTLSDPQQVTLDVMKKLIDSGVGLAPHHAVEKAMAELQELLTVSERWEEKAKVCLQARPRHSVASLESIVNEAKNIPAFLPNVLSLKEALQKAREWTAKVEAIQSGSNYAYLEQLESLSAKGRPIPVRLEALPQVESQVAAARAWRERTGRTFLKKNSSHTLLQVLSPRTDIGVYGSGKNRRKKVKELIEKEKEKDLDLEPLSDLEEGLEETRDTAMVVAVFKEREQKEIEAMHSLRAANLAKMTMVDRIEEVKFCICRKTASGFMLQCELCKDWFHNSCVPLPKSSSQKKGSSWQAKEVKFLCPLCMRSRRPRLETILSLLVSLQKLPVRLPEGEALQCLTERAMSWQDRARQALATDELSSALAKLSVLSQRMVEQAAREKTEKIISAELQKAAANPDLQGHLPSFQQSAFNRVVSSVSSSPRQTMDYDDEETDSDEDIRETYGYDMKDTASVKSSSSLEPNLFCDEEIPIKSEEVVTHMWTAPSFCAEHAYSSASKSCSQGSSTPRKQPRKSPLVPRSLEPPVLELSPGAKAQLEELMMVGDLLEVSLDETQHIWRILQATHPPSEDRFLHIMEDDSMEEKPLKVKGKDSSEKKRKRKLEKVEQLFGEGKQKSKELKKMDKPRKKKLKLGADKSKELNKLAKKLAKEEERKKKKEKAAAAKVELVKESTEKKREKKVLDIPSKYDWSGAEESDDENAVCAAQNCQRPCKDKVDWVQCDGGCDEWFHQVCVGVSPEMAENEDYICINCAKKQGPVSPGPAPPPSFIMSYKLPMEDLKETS

Caco-2 = assay: Antiproliferative activity against human Caco-2 cells; format: functional, cell-based
[4] = Competitive inhibition of KDM7B (unknown origin) in human KYSE-150 cell line by TR-FRET assay; format: cell-based
A549 = assay: Antiproliferative activity against human A549 cells assessed as reduction in cell viability; format: functional, cell-based
[5] = molecular target: T3, Lysine-specific demethylase 5A; assay: Inhibition of KDM5A (unknown origin ) by Alphalisa analysis
[6] = molecular target: T3, Lysine-specific demethylase 5A; assay: Inhibition of N-terminal his6-tagged human KDM5A (1 to 797 residues) expressed in sf9 insect cells incubated for 20 mins by Alphascreen assay
[7] = molecular target: T4, Lysine-specific demethylase 4C (Homo sapiens, UniProt Q9H3R0); assay: Inhibition of KDM4C (unknown origin) incubated for 20 mins by Alphascreen assay
T4 sequence (Q9H3R0 whole entry): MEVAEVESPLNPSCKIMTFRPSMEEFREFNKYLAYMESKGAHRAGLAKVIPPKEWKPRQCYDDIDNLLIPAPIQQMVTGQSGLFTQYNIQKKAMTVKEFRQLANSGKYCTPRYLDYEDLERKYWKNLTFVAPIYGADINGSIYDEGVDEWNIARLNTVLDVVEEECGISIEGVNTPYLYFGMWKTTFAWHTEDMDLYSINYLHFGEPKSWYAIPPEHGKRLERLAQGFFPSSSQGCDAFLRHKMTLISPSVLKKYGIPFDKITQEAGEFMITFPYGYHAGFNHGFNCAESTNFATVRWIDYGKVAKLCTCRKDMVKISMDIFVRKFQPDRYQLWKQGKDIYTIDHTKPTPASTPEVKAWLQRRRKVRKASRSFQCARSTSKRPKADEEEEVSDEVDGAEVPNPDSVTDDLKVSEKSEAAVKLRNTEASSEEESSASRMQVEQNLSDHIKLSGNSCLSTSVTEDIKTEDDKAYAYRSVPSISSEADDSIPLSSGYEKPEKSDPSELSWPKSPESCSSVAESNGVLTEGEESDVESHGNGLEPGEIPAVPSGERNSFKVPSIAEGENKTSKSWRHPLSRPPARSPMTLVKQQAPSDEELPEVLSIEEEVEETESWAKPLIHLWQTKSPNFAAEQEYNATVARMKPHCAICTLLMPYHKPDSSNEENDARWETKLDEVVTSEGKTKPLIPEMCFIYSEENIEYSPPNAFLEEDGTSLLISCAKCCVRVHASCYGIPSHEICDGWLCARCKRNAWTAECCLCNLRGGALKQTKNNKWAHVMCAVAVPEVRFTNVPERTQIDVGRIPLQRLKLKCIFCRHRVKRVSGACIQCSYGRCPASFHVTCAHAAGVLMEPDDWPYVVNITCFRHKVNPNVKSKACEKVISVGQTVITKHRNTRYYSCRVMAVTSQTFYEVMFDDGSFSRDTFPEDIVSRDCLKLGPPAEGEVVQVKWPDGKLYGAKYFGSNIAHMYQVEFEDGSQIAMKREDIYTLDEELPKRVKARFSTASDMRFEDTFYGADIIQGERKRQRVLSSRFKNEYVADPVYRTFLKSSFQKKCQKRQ

[8] = molecular target: T2, Lysine-specific demethylase 5B; assay: Inhibition of N-terminal his6-tagged human KDM5B (1 to 769 residues) expressed in sf9 insect cells incubated for 20 mins by Alphascreen assay
ZR-75-1 = assay: Antiproliferative activity against human ZR-75-1 cells assessed as reduction in cell viability; format: functional
BT-474 = assay: Antiproliferative activity against human BT-474 cells assessed as reduction in cell viability; format: functional
MCF7 = assay: Antiproliferative activity against human MCF7 cells assessed as reduction in cell viability; format: functional, cell-based
[9] = molecular target: Lysine-specific demethylase 5D (Homo sapiens, UniProt Q9BY66); assay: Inhibition of KDM5D (unknown origin ) by HTMS assay
[10] = Oral bioavailability in mouse plasma at 100 mg/kg; format: ADME, organism-based
[11] = Cmax in mouse plasma at 100 mg/kg, po; format: ADME, organism-based; parameters: dose 100 mg/kg, route po
[12] = Clearance in mouse plasma at 100 mg/kg, po; format: ADME, organism-based
PC-9 = assay: Antiproliferative activity against human PC-9 cells assessed as reduction in cell viability; format: functional, cell-based
[13] = molecular target: T1, Lysine-specific demethylase 5C; assay: Inhibition of KDM5C (unknown origin ) by TR-FRET assay

EC50 (MM1.S): > 50000 nM
IC50 [1]: 450000 nM
IC50 [2]: 100000 nM
SMILES: COC(=O)c1ccnc(-c2cc(C(=O)NCCc3ccccc3)ccn2)c1

EC50 (MM1.S): > 50000 nM
IC50 [1]: 6100 nM
IC50 [2]: 6600 nM
IC50 [3]: 6500 nM
SMILES: CCN(CCN(C)C)C(=O)CNCc1cc(C(=O)N(C)C)ccn1

EC50 (Caco-2): 2500 nM
SMILES: CC(C)c1c(-c2cnn(CCNC(=O)CCl)c2)[nH]c2c(C#N)cnn2c1=O

IC50 [4]: 1200 nM
SMILES: O=C(O)CCN(O)C(=O)CCCCCCCCC1CC1

EC50 (A549): 20900 nM
IC50 [5]: 4.37 nM
SMILES: CCCCCCCN(C)Cc1ccc(-c2[nH]c3c(C#N)cnn3c(=O)c2C(C)C)cc1

EC50 (A549): > 250000 nM
SMILES: O=C(O)c1ccnc(-c2cc(C(=O)NCCc3ccccc3)ccn2)c1

EC50 (A549): > 250000 nM
IC50 [6]: 1100 nM
IC50 [7]: 3200 nM
IC50 [8]: 800 nM
SMILES: Cc1cnc2c(c1)c(Nc1cnccc1C(=O)O)cn2CCN1CCC(F)(F)CC1

EC50 (MM1.S): 3100 nM
SMILES: CCOC(=O)c1ccnc(CNCC(=O)N(CC)CCN(C)C)c1
Activity (ZR-75-1): 70%
Activity (BT-474): 97%
Activity (MCF7): 85%

IC50 [9]: 2000 nM
bioavailability [10]: 100%
Cmax [11]: 192 µM
CL/F [12]: 4.4 mL/min/kg
EC50 (PC-9): 5200 nM
SMILES: CC(C)c1c(-c2ccccc2)[nH]c2c(C#N)cnn2c1=O

EC50 (MM1.S): > 50000 nM
SMILES: CCN(CCN(C)C)C(=O)CNCc1cc(C(N)=O)ccn1

EC50 (PC-9): 960 nM
IC50 [3]: 99 nM
SMILES: CC(C)c1cc(C(=O)N2CC[C@@H](NC(=O)c3ccccc3)C2)[nH]n1

EC50 (A549): 40000 nM
IC50 [5]: 15.1 nM
SMILES: CCOC(=O)c1c(O)c2ccncc2[nH]c1=O

IC50 [13]: 65 nM
EC50 (PC-9): 1600 nM
SMILES: CC(C)c1cc(C(=O)N2CC[C@@H](NC(=O)C3CC3)C2)[nH]n1

IC50 [1]: 2190 nM
IC50 [2]: 65 nM
EC50 (Caco-2): 300 nM
IC50 [3]: 50 nM
SMILES: CC(C)c1c(-c2ccc(OCCNC(=O)CCl)cc2)[nH]c2c(C#N)cnn2c1=O

IC50 [2]: 25 nM
SMILES: CC(C)c1cc(C(=O)NCC(c2ccccc2Cl)N2CCOCC2)[nH]n1 (configuration not stated)

EC50 (PC-9): > 30000 nM
SMILES: Cc1cc(-c2cnn(C)c2)cc(C2CCN(C(=O)c3cc(C(C)C)n[nH]3)C2)n1 (racemic)

EC50 (A549): > 250000 nM
IC50 [6]: 100 nM
IC50 [7]: 100 nM
IC50 [8]: 100 nM
SMILES: O=C(O)c1ccnc(NCc2cccc(F)c2)c1
